# Data reported in paper PMC7747594, “Protease-activated receptor-2 ligands reveal orthosteric and allosteric mechanisms of receptor inhibition” (Communications Biology, 2020).
# Key:
# [1] = molecular target: T1, PAR2 (F2RL1) (Homo sapiens, UniProt P55085); test: β-arrestin recruitment, DiscoverX profiling service, PAR2; type: cell-based; conditions: for Max Response: in % (unit assumed)
# T1 sequence (P55085 26-397): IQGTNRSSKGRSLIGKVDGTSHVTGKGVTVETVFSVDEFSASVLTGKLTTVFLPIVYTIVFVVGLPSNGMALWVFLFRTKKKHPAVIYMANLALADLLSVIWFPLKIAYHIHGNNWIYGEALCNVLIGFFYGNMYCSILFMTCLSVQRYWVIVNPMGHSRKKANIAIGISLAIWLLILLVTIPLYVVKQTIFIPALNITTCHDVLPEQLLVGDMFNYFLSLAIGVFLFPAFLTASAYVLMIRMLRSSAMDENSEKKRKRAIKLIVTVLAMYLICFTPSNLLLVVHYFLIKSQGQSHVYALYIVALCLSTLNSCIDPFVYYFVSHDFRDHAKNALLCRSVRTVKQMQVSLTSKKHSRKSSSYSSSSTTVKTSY
# [2] = tested on: PAR2[F154A], PAR2[G157C]; test: Ca^2+ flux assay, inhibition of trypsin in 1321N1 cells transiently transfected with PAR2 [WT], [F154A] or [G157C]; type: cell-based, human; conditions: [F154A and G157C], monophasic
# Experimental: Cell culture reagents were purchased from ThermoFisher Scientific unless otherwise stated. The parental 1321N1 cell line was obtained from ECACC. 1321N1 cells, stably expressing the human PAR2 receptor, (1321N1-hPAR2) were routinely cultured in Dulbecco’s Modified Eagle Medium (DMEM) supplemented with GlutaMax-1 containing 10% fetal bovine serum (FBS) and G418 (600 µg ml^−1). U2OS cells, stably expressing human PAR2 (U2OS-hPAR2, 93-0235C3, DiscoverX/Eurofins) were routinely cultured in McCoy’s 5A media containing 10% FBS, G418 (500 µg ml^−1) and Hygromycin B (250 µg ml^−1). Rodent PAR2 was assessed in rat KNRK cells (ATCC) cultured in DMEM with 10% FBS supplemented with 2 mM L-Glutamine. Human PAR2 was assessed in HT-29 cells (ECACC) cultured in DMEM with 10% FBS supplemented with penicillin (50 U ml^−1) and streptomycin (50 µg ml^−1). […]
# For evaluation of Ca^2+ mobilisation, 1321N1-hPAR2 cells were seeded in 384-well CellBIND plates (Corning) at 4000 cells per well in DMEM containing 10% FBS and incubated for 18–24 hours at 37 °C, 5% CO2 and 95% humidity. […] Inhibition of Ca^2+ release on rat PAR2 was measured in the same way using 10 000 KNRK cells per well seeded in poly-D-lysine coated 384-well plates (Greiner), 30 min preincubation with the compound before activation of PAR2 with EC80 of SLIGRL-NH2 (120 µM) and real-time detection of Ca^2+. […]
Curve Bottom ([1]; Agonist format),Curve Top ([1]; Agonist format),Hill ([1]; Agonist format),Max Response ([1]; Agonist format),"EC50 ([1]; Agonist format, read-out: RC50 (EC50)) [nM]",Max Response ([1]; Antagonist format),"IC50 ([1]; Antagonist format, read-out: RC50 (IC50)) [nM]",inhibition of trypsin-induced PAR2 activation at mutant receptors pIC50 [2],SMILES
-2,103.3,1.29,104.3,25,4.5,> 50000,,CNC(=O)[C@H]1CC[C@@H](NC(=O)[C@H](CC2CCCCC2)NC(=O)c2cn(Cc3ccccc3)nn2)c2ccccc21 [AZ2429]
,,,,,,,6,C[C@@H](C1CCCCC1)n1c(-c2cc3c(cc2Br)OCO3)nc2cc(C(=O)Nc3ccc(C#N)cc3)ccc21 [AZ3451]
